From US11274165B2, “Pentosan polysulfate, pharmaceutical composition, and anticoagulant” (OJI HOLDINGS CORPORATION, priority 2017, dated 2022)

Key:
[1] = test system: factor Xa; assay: Anti-Xa activity measured using Test Team Heparin S (Sekisui Medical); format: biochemical; conditions: for Anti-Xa/anti-IIa activity ratio: ratio of anti-Xa activity to anti-IIa activity
Experimental: Herein, the factor Xa inhibitory activity (anti-Xa activity) can be measured using Test Team (registered trademark) Heparin S (manufactured by Sekisui Medical Co., Ltd.).
Using Test Team (registered trademark) Heparin S (manufactured by Sekisui Medical Co., Ltd.), the anti-Xa activity of pentosan polysulfate sodium was measured.
(§1) The content of acetyl groups, the content of sulfur, the anti-Xa activity, and the anti-IIa activity were measured in the same manners as those of Examples 1 to 5.

[2] = target: T1, factor IIa (Homo sapiens, UniProt P00734); assay: Anti-IIa activity measured using Biophen heparin anti-IIa (Hyphen Biomed); format: biochemical
T1 construct: purchased Hyphen Biomed
Experimental: Moreover, the factor IIa inhibitory activity (anti-IIa activity) can be measured using Biophen heparin anti-IIa (manufactured by Hyphen Biomed).
Using Biophen heparin anti-IIa (manufactured by Hyphen Biomed), the anti-IIa activity of pentosan polysulfate sodium was measured.
as §1

[3] = Table 3, influence of molecular weight
[4] = Table 1, influence of content of acetyl groups

Substance | Anti-IIa activity (IU/mg) [2, 3] | Anti-IIa activity (IU/mg) [2, 4] | Anti-Xa activity (IU/mg) [1, 3] | Anti-Xa/anti-IIa activity ratio ([1]; Table 3) | Anti-Xa activity (IU/mg) [1, 4] | Anti-Xa/anti-IIa activity ratio ([1]; Table 1)
pentosan polysulfate sodium [Ex. 3] |  | 0.0676 IU/mg |  |  | 0.2439 IU/mg | 3.607
pentosan polysulfate sodium [Ex. 5] |  | 0.0976 IU/mg |  |  | 0.2297 IU/mg | 2.352
pentosan polysulfate sodium [Ex. 2] |  | 0.1845 IU/mg |  |  | 0.2588 IU/mg | 1.403
pentosan polysulfate sodium [Comp. Ex. 3, reference compound] | 62.12 IU/mg |  | 16.61 IU/mg | 0.15 |  | 
pentosan polysulfate sodium [Ex. 1] |  | 0.1405 IU/mg |  |  | 0.2047 IU/mg | 1.457
pentosan polysulfate sodium [Ex. 4] |  | 0.0934 IU/mg |  |  | 0.2419 IU/mg | 2.591

More lines, main results first:

Anti-IIa activity (IU/mg) [2, 3] | Anti-IIa activity (IU/mg) [2, 4] | Substance | Anti-Xa activity (IU/mg) [1, 3] | Anti-Xa/anti-IIa activity ratio ([1]; Table 3) | Anti-Xa activity (IU/mg) [1, 4] | Anti-Xa/anti-IIa activity ratio ([1]; Table 1)
6.80 IU/mg |  | pentosan polysulfate sodium [Comp. Ex. 4] | 0.73 IU/mg | 0.11 |  | 
15.52 IU/mg |  | pentosan polysulfate sodium [Comp. Ex. 2] | 1.69 IU/mg | 0.11 |  | 
0.15 IU/mg |  | pentosan polysulfate sodium [Ex. 6] | 0.67 IU/mg | 4.29 |  | 
 | 0.0221 IU/mg | pentosan polysulfate sodium [Comp. Ex. 1, reference compound] |  |  | 0.0840 IU/mg | 3.801
0.43 IU/mg |  | pentosan polysulfate sodium [Ex. 8] | 0.22 IU/mg | 0.51 |  | 
0.12 IU/mg |  | pentosan polysulfate sodium [Ex. 7] | 0.15 IU/mg | 1.25 |  | 
